{"source": "ChEMBL document CHEMBL5291721", "about": "“A preclinical secondary pharmacology resource illuminates target-adverse drug reaction associations of marketed drugs” (Nat Commun, 2023); further: assay procedure not described here", "key": {"[1]": {"molecular_target": "Vascular endothelial growth factor receptor 2 (Homo sapiens, UniProt P35968)", "sequence (P35968 whole entry)": "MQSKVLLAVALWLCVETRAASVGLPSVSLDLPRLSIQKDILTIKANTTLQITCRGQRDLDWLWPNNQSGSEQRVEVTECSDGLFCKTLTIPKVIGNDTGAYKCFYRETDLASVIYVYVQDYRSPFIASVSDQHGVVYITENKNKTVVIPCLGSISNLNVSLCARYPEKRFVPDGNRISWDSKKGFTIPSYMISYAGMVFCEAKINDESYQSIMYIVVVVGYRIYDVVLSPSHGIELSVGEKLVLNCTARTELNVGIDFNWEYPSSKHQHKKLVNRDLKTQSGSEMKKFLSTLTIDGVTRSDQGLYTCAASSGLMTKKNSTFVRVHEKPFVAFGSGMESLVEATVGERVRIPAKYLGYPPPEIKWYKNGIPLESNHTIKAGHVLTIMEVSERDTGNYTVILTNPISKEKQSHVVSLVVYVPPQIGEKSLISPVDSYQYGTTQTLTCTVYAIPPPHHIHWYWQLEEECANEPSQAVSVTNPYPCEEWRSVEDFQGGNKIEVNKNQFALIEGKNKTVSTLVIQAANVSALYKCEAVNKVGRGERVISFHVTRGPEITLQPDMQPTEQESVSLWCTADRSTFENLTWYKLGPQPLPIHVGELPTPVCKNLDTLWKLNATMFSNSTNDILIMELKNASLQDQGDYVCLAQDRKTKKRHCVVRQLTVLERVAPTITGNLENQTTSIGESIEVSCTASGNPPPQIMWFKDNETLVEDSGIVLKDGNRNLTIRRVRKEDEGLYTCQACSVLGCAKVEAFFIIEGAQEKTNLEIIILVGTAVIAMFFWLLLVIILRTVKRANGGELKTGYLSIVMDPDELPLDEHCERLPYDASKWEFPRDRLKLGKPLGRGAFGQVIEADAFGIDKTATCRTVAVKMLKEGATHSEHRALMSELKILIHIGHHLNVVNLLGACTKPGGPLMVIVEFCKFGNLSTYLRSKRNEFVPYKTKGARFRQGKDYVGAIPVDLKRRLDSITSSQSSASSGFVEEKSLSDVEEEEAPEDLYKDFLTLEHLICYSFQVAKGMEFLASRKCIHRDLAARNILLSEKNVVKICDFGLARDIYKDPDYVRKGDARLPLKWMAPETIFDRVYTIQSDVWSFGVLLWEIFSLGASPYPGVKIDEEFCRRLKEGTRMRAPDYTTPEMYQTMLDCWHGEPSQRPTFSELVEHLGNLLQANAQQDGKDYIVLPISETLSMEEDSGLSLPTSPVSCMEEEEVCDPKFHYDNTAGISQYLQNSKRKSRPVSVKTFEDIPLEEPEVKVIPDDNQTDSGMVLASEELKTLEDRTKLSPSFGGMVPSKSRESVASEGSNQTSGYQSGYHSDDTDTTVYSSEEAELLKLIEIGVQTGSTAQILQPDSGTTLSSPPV", "assay_type": "functional"}, "[2]": {"molecular_target": "T1, Muscarinic acetylcholine receptor M1 (Homo sapiens, UniProt P11229)", "T1 sequence (P11229 whole entry)": "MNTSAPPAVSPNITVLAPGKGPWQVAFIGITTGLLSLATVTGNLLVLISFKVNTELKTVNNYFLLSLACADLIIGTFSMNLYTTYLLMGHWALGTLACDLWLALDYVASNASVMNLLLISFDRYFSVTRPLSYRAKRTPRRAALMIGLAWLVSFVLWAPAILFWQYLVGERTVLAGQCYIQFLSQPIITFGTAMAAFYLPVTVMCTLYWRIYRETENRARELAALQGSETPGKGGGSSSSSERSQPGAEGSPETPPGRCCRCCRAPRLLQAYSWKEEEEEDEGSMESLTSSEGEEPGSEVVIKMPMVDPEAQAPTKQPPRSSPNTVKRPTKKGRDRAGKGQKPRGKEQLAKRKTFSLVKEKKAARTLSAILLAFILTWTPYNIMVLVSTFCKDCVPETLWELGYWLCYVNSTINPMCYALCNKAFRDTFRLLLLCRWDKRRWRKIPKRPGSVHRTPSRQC", "assay_type": "functional, cell-based"}, "[3]": {"molecular_target": "T2, Alpha-1A adrenergic receptor (Homo sapiens, UniProt P35348)", "T2 sequence (P35348 whole entry)": "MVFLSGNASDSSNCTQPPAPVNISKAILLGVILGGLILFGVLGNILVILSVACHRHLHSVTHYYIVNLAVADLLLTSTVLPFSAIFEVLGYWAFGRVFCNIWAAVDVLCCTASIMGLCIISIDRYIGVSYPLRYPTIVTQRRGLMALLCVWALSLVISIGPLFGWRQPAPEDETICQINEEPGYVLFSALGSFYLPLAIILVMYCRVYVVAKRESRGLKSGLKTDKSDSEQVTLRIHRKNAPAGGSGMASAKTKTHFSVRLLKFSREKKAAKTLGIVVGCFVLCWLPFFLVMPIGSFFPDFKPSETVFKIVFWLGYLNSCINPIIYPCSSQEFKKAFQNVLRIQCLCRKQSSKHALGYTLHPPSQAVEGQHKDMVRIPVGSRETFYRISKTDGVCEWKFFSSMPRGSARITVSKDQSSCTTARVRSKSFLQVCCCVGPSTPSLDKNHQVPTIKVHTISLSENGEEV", "assay_type": "functional, cell-based"}}, "data": [{"smiles": "COc1nccnc1NS(=O)(=O)c1ccc(N)cc1", "values": [{"measurement": "AC50", "setting": "[1]", "value": "> 30", "unit": "µM"}, {"measurement": "AC50", "setting": "[2]", "value": "> 30", "unit": "µM"}, {"measurement": "AC50", "setting": "[3]", "value": "> 30", "unit": "µM"}]}, {"smiles": "NC(=O)c1nc(F)c[nH]c1=O", "values": [{"measurement": "AC50", "setting": "[1]", "value": "> 30", "unit": "µM"}, {"measurement": "AC50", "setting": "[2]", "value": "> 30", "unit": "µM"}, {"measurement": "AC50", "setting": "[3]", "value": "> 30", "unit": "µM"}]}, {"smiles": "CN(C)CCCN1C(=O)c2cc([N+](=O)[O-])ccc2Oc2ccccc21", "values": [{"measurement": "AC50", "setting": "[1]", "value": "> 30", "unit": "µM"}, {"measurement": "AC50", "setting": "[2]", "value": "> 30", "unit": "µM"}, {"measurement": "AC50", "setting": "[3]", "value": "> 30", "unit": "µM"}]}, {"smiles": "O=C(O)COc1nn(Cc2ccccc2)c2ccccc12", "note": "[BENDAZAC]", "values": [{"measurement": "AC50", "setting": "[1]", "value": "> 30", "unit": "µM"}, {"measurement": "AC50", "setting": "[2]", "value": "> 30", "unit": "µM"}, {"measurement": "AC50", "setting": "[3]", "value": "> 30", "unit": "µM"}]}, {"smiles": "Cc1ccc([C@@H]2O[C@H](CO)[C@@H](O)[C@H](O)[C@H]2O)cc1Cc1ccc(-c2ccc(F)cc2)s1", "note": "[CANAGLIFLOZIN ANHYDROUS]", "values": [{"measurement": "AC50", "setting": "[1]", "value": "> 30", "unit": "µM"}, {"measurement": "AC50", "setting": "[2]", "value": "> 30", "unit": "µM"}, {"measurement": "AC50", "setting": "[3]", "value": "> 30", "unit": "µM"}]}, {"smiles": "O=C(O)c1cc(=O)c2ccccc2o1", "note": "[CHROMOCARB]", "values": [{"measurement": "AC50", "setting": "[1]", "value": "> 30", "unit": "µM"}, {"measurement": "AC50", "setting": "[2]", "value": "> 30", "unit": "µM"}, {"measurement": "AC50", "setting": "[3]", "value": "> 30", "unit": "µM"}]}, {"smiles": "CN(CC(=O)O)C(=N)N", "note": "[CREATINE]", "values": [{"measurement": "AC50", "setting": "[1]", "value": "> 30", "unit": "µM"}, {"measurement": "AC50", "setting": "[2]", "value": "> 30", "unit": "µM"}, {"measurement": "AC50", "setting": "[3]", "value": "> 30", "unit": "µM"}]}, {"smiles": "C[C@]12CC[C@@H]3c4ccc(O)cc4CC[C@H]3[C@@H]1CC[C@@H]2OC(=O)CCC1CCCC1", "note": "[ESTRADIOL CYPIONATE]", "values": [{"measurement": "AC50", "setting": "[1]", "value": "> 30", "unit": "µM"}, {"measurement": "AC50", "setting": "[2]", "value": "> 30", "unit": "µM"}, {"measurement": "AC50", "setting": "[3]", "value": "> 30", "unit": "µM"}]}, {"smiles": "C[C@]12CCC(=O)C=C1CC[C@@H]1[C@@H]2[C@@H](O)C[C@@]2(C)[C@H]1CC[C@]2(O)C(=O)COC(=O)CCC(=O)O", "note": "[HYDROCORTISONE HEMISUCCINATE ANHYDROUS]", "values": [{"measurement": "AC50", "setting": "[1]", "value": "> 30", "unit": "µM"}, {"measurement": "AC50", "setting": "[2]", "value": "> 30", "unit": "µM"}, {"measurement": "AC50", "setting": "[3]", "value": "> 30", "unit": "µM"}]}, {"smiles": "N=C(N)NCc1cccc([123I])c1", "note": "[IOBENGUANE I 123]", "values": [{"measurement": "AC50", "setting": "[1]", "value": "> 30", "unit": "µM"}, {"measurement": "AC50", "setting": "[2]", "value": "> 30", "unit": "µM"}, {"measurement": "AC50", "setting": "[3]", "value": 10.7, "unit": "µM"}]}, {"smiles": "C=C1c2c(Cl)ccc(O)c2C(=O)C2=C(O)[C@]3(O)C(=O)C(C(N)=O)=C(O)[C@@H](N(C)C)[C@@H]3[C@@H](O)[C@H]12", "note": "[MECLOCYCLINE]", "values": [{"measurement": "AC50", "setting": "[1]", "value": "> 30", "unit": "µM"}, {"measurement": "AC50", "setting": "[2]", "value": "> 30", "unit": "µM"}, {"measurement": "AC50", "setting": "[3]", "value": "> 30", "unit": "µM"}]}, {"smiles": "Cc1cc2c(OCC(O)CNC(C)C)cccc2[nH]1", "note": "(stereo unspecified) [MEPINDOLOL]", "values": [{"measurement": "AC50", "setting": "[1]", "value": "> 30", "unit": "µM"}, {"measurement": "AC50", "setting": "[2]", "value": "> 30", "unit": "µM"}, {"measurement": "AC50", "setting": "[3]", "value": "> 30", "unit": "µM"}]}]}
